Source: US20030236212A1, “Functionalized long chain derivatives as acyl coenzyme-A mimics, compositions thereof, and methods of cholesterol management and related uses” (priority 2002, published 2003)

Assays:
primary rat hepatocytes = test: Synthesis of total lipids (14C-acetate labeling) in primary rat hepatocytes; type: cell-based; conditions: rat hepatocyte cells, 14C-acetate 4 hr, vs vehicle control
Description: A male Sprague-Dawley rate was anesthetized by administration of sodium pentobarbitol by intraperitoneal at 80 mg/kg. In situ perfusion of the liver was performed as follows. The abdomen of the animal was opened, the portal vein canulated, and the liver perfused with WOSH solution (149 mM NaCl, 9.2 mM Na HEPES, 1.7 mM Fructose, 0.5 mM EGTA, 0.029 mM Phenol red, 10 U/ml heparin, pH 7.5) at a flow rate of 30 ml/min for 6 minutes. To digest the liver, DSC solution (6.7 mM KCl, 143 mM NaCl, 9.2 mM Na HEPES, 5 mM CaCl2-2H2O, 1.7 mM Fructose, 0.029 mM Phenol red, 0.2% BSA, 100 U/ml collagenase Type 1,160 BAEE/ml trypsin inhibitor, pH 7.5) was perfused through the liver at a flow rate of 30 ml/min for 6 minutes at a temperature of 37° C. After digestion, cells were dispersed in a solution of DMEM-(DMEM containing 2 mM GlutMax-1, 0.2% BSA, 5% FBS, 12 nM insulin, 1.2 μM hydrocortisone) to stop the digestion process. The crude cell suspension was filtered through three layers of stainless steel mesh with pore sizes of 250, 106, and 75 μm respectively. Filtered cells were centrifuged at 50×g for two minutes and the supernatant discarded. The resulting cell pellet was resuspended in DMEM and centrifuged again. This final cell pellet was resuspended in DMEM+HS solution (DMEM containing 2 mM GlutMax-1, 20 mM delta-aminolevulinic acid, 17.4 mM MEM nonessential amino acids, 20% FBS, 12 nM insulin, 1.2 μM hydrocortisone) and plated to form monolayer cultures at a density of 100×10^3 cells/cm^2 on collagen coated culture dishes.
To test the effect of an illustrative compound of the invention on synthesis rates of total lipids, the monolayer cultures were exposed to 1, 3, 10, 30, 100, or 300 μM of Compound A or 10 μM of Compound 1 in DMEM+containing 1 μCi/ml 14C-acetate, D-glucose, hepes, glutamine, leucine, alanine, lactate, pyruvate, non-essential amino acids, BSA, and gentamicine. Control cells were exposed to the same media lacking lovastatin or the test compounds. All cells were exposed to 0.1% DMSO. Metabolic labeling with ^14C-acetate continued for 4 hr at 37° C. After labeling, cells were washed twice with 1 mL of PBS followed by addition of scintallant (Microscent E) and counted on Topcount®.

obese female Zucker rats = test: Oral daily treatment of obese female Zucker rats for 14 days (body weight, serum lipids, glucose, insulin); type: in vivo, rat; design: HDL-C / Glucose / Insulin / NEFA / BHA / TG / TC / Non HDL-C: unit not given here
Description: The dosing vehicle was administered to control animals in parallel experiments.
Body weight was determined daily prior to dosing. Animals were allowed free access to rodent chow and water throughout the study. Blood glucose was determined after a 6-hour fast in the afternoon without anesthesia from a tail vein. Serum was also prepared from a blood sample subsequently obtained from the orbital venous plexus (with O2/CO2 anesthesia) prior to and after one week treatment and used lipid and insulin determinations. At two weeks, blood glucose was again determined after a 6-hour fast without anesthesia from a tail vein. Soon thereafter, animals were sacrificed by CO2 inhalation in the afternoon and cardiac blood serum was collected and assessed for various lipids and insulin.

[1] = obese female Zucker rats, oral gavage daily 14 days, 100 mg/kg
[2] = obese female Zucker rats, oral, 14 days, 100 mg/kg/day (Table 1)

CC(C)(CCCCOCCCCC(C)(C)COP(=O)(O)O)COP(=O)(O)O.N.N.N.N [Compound A]
reduction of rates of total lipid synthesis (primary rat hepatocytes; 3 μM): at least 97%
reduction of rates of total lipid synthesis (primary rat hepatocytes; 10 μM): at least 97%
serum insulin relative to pretreatment (obese female Zucker rats; fasted obese female Zucker rats, two weeks of treatment, 100 mg/kg): rose slightly
liver to body weight (obese female Zucker rats; [1]): increased
serum non-esterified fatty acids (obese female Zucker rats; [1]): reduced
serum total cholesterol (obese female Zucker rats; [1]): elevated
serum triglycerides (obese female Zucker rats; [1]): reduced
weight gain, percent of initial weight after two weeks (obese female Zucker rats; [1]): 1%
β-hydroxy butyrate levels (obese female Zucker rats; [1]): elevated
BHA (obese female Zucker rats; [2]): 1 ± 0.5
Glucose (obese female Zucker rats; [2]): 5.6 ± 4.2
HDL-C (obese female Zucker rats; [2]): 186.7 ± 51.5
Insulin (obese female Zucker rats; [2]): 10.6 ± 26.3
NEFA (obese female Zucker rats; [2]): 0.059 ± 0.003
Non HDL-C (obese female Zucker rats; [2]): −30.6 ± 15.4
TC (obese female Zucker rats; [2]): −85.7 ± 1.2
TG (obese female Zucker rats; [2]): 833.8 ± 209.9
ratio of non-HDL cholesterol to HDL cholesterol content (obese female Zucker rats; obese female Zucker rats, relative to control and reference compound-treated animals, 100 mg/kg): improved
HDL-cholesterol elevation (obese female Zucker rats; obese female Zucker rats, two-week treatment, 100 mg/kg): 9 fold
body weight increases (obese female Zucker rats; obese female Zucker rats, versus reference compound-treated animals, 100 mg/kg): did not cause the body weight increases
melting point: 185 to 186 °C
